Results taken from ChEMBL document CHEMBL1201862, “PubChem BioAssay data set” (2004).
The source made the active and inactive calls.

Experiments:
Leucine aminopeptidase = target: T1, Leucine aminopeptidase (Plasmodium falciparum 3D7, UniProt Q8IL11); assay: P. falciparum M17LAP inhibitors, primary screen, biochemical, fluorogenic H-Leu-NHMec substrate, 1536-well (AID 1619); format: functional
T1 sequence (Q8IL11 whole entry): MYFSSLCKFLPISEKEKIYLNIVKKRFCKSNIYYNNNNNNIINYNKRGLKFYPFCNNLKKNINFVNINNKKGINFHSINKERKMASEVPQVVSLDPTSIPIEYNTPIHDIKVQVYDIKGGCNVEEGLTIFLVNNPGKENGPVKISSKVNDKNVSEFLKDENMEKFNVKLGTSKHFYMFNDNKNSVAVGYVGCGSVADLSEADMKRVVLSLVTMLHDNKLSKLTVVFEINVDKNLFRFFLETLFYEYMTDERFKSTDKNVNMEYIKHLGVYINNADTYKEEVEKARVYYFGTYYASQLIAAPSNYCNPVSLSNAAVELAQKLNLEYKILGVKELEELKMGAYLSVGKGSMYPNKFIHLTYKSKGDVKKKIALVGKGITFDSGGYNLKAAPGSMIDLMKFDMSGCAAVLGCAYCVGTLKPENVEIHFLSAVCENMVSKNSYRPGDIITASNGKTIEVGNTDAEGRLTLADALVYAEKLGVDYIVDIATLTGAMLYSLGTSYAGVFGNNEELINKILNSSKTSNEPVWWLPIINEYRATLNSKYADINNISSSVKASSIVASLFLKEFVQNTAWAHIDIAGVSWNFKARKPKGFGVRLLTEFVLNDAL

[1] = target: T2, Ubiquitin-conjugating enzyme E2 N (Homo sapiens, UniProt P61088); format: functional;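 also: Dose-response confirmation in a TR-FRET assay detecting UBC13-driven polyubiquitin chain formation, inhibition measured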
T2 sequence (P61088 whole entry): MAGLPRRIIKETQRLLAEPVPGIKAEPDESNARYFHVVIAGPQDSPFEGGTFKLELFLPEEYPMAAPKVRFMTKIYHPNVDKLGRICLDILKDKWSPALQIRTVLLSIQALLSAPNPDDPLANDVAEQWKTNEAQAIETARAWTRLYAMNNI

[2] = target: T3, Replicative DNA helicase DnaB (Mycobacterium tuberculosis, UniProt P9WMR3); assay: DnaB intein splicing inhibitors, dose response, biochemical, cell-free fluorescence (AID 449749); format: functional
T3 sequence (P9WMR3 whole entry): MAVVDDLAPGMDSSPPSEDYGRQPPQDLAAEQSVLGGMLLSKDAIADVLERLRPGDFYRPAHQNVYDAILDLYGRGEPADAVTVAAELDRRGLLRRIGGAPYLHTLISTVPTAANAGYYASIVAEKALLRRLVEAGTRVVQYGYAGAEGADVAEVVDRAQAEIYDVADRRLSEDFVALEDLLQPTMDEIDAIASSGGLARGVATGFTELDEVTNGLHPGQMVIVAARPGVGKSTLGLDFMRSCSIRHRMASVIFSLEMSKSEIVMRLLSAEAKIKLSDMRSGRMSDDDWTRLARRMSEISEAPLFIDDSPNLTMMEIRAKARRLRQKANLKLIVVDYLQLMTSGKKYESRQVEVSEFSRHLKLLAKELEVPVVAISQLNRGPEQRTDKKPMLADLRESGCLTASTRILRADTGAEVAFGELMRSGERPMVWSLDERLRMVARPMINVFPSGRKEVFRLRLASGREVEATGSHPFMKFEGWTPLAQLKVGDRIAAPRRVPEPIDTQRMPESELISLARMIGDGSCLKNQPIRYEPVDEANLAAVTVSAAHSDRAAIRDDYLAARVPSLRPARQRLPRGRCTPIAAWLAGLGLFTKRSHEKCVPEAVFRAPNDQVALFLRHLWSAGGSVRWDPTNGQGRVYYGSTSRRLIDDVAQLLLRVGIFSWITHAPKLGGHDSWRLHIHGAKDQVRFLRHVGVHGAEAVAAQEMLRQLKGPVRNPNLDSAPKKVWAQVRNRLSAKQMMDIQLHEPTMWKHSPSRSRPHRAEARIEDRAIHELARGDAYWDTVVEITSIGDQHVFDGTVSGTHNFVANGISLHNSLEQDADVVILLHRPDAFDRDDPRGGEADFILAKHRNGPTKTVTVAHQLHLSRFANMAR

Protein RecA = target: T4, Protein RecA (Mycobacterium tuberculosis, UniProt P9WHJ3); assay: Fluorescence Cell-Free Homogeneous Dose Retest to Identify Inhibitors of RecA-Intein Splicing Activity. [Related pubchem assays (depositor defined):AID2097, AID2223, AID489010, AID492950]; format: functional
T4 sequence (P9WHJ3 whole entry): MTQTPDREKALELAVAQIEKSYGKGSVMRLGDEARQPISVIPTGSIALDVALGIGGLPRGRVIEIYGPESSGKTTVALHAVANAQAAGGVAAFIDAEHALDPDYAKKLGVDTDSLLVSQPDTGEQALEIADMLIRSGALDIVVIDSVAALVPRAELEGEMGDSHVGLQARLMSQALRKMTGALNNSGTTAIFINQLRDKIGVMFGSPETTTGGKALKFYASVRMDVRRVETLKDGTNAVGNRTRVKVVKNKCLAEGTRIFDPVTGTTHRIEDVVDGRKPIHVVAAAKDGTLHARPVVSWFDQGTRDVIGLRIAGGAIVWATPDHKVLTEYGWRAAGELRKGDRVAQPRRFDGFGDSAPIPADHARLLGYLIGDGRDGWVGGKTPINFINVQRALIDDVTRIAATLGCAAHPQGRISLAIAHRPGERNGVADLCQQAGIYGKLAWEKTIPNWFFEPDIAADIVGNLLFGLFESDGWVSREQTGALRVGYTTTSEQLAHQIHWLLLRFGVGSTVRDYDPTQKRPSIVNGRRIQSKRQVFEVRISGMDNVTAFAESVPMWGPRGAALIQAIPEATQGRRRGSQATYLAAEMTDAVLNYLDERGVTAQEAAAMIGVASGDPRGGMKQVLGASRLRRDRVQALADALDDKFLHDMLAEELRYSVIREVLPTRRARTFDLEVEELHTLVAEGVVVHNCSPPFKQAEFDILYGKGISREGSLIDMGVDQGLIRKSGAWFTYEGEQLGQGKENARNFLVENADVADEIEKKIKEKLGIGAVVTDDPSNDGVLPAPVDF

[3] = target: Eukaryotic translation initiation factor 4E (Mus musculus, UniProt P63073); assay: eIF4E–eIF4G protein interaction inhibitors, dose response, biochemical, TR-FRET (AID 855); format: functional;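 also: potency for disrupting eIF4E binding to eIF4GI seen as loss of FRET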
Sequence of Eukaryotic translation initiation factor 4E (P63073 whole entry): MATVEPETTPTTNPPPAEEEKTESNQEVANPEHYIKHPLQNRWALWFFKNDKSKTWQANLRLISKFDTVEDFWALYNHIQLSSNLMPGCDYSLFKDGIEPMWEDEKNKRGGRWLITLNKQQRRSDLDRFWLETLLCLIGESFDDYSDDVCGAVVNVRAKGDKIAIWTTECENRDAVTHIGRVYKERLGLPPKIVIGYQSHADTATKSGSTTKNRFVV

Aminopeptidase N = target: T5, Aminopeptidase N (Plasmodium falciparum FcB1/Columbia, UniProt O96935); assay: P. falciparum M1AAP inhibitors, biochemical, fluorogenic H-Leu-NHMec substrate, 1536-well (AID 1445); parameters: species or system Plasmodium falciparum 3D7, 3D7
T5 sequence (O96935 whole entry): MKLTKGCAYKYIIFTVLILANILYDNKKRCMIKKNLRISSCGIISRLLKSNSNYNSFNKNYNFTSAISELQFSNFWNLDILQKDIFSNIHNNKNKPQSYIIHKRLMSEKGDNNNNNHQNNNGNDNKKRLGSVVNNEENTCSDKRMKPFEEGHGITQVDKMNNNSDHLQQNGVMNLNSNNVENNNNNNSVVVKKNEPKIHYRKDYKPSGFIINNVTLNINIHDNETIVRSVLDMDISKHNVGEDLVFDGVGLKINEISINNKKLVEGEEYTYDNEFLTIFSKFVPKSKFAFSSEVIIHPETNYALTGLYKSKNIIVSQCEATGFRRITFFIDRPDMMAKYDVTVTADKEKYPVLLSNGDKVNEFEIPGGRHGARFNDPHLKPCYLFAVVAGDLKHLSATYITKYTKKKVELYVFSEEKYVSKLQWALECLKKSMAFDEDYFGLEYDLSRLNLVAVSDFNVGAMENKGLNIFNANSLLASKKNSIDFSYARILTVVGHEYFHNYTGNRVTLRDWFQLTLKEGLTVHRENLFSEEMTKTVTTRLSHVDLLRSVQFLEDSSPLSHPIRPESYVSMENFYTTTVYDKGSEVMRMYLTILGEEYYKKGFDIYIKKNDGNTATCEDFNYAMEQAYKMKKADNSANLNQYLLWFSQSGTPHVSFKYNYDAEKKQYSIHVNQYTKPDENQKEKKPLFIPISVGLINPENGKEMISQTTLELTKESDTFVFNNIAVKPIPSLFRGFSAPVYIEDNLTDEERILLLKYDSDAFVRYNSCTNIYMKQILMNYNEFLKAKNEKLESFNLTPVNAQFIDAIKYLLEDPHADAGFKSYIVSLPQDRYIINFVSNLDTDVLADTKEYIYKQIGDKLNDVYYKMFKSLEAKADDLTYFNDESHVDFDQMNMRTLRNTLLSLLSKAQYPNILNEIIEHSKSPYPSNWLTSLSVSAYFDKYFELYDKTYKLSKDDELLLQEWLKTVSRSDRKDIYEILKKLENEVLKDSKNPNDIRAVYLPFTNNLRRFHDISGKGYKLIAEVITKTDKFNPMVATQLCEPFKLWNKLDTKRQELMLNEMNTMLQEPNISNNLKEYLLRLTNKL

[4] = target: T6, Short transient receptor potential channel 4 (Mus musculus, UniProt Q9QUQ5); assay: mouse TRPC4 channel inhibitors, dose response, cell-based, HEK293 TRPC4/mu-opioid, Fluo-4 calcium (AID 434942); format: functional;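 also: potency of inhibitors blocking the TRPC4 calcium response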
T6 sequence (Q9QUQ5 whole entry): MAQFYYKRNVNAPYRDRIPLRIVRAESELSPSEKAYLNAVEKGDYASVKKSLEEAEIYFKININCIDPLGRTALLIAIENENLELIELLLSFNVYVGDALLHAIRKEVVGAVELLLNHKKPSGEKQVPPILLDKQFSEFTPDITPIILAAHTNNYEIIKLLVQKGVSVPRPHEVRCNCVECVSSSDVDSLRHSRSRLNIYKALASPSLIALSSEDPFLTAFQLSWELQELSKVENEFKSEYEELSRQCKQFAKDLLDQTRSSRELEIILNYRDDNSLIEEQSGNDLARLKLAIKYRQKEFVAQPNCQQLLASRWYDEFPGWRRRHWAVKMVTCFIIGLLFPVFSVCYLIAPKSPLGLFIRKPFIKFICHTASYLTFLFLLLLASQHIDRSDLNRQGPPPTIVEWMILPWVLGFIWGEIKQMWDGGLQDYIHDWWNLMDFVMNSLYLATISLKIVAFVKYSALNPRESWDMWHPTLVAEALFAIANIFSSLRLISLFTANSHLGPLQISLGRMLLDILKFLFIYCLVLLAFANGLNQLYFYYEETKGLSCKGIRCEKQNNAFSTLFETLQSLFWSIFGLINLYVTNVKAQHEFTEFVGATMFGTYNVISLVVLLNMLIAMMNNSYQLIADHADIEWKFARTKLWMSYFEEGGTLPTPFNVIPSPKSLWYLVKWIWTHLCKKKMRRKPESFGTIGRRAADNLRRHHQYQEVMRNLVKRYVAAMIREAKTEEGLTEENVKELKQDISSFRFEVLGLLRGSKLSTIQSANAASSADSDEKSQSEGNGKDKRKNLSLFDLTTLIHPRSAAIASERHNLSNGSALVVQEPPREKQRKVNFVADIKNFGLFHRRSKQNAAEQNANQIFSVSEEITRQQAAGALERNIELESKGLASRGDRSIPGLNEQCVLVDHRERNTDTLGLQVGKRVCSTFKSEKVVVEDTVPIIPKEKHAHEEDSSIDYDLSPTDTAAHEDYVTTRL

[5] = target: DNA dC->dU-editing enzyme APOBEC-3G (Homo sapiens, UniProt Q9HC16); assay: Dose Response confirmation of small molecule APOBEC3G DNA Deaminase Inhibitors via a fluorescence-based single-stranded DNA deaminase assay. [Related pubchem assays (depositor defined):AID493012, AID493028]; format: functional
Sequence of DNA dC->dU-editing enzyme APOBEC-3G (Q9HC16 whole entry): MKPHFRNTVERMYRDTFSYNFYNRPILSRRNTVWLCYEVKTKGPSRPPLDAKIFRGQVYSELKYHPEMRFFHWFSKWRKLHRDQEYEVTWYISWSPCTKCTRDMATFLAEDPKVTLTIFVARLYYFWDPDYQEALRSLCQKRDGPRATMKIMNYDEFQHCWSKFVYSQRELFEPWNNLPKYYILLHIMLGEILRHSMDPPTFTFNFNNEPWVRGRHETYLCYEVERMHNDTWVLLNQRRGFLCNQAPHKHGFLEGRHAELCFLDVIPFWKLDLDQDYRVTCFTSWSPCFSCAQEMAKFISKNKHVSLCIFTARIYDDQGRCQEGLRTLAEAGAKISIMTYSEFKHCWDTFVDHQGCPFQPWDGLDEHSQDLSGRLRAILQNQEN

cells [6] = format: functional, cell-based
cells [7] = format: functional, cell-based; remark: listed apart in the source
Nonstructural protein 1 = Nonstructural protein 1 (Influenza A virus, UniProt Q194T2); format: functional, Influenza A virus (A/California/07/2009(H1N1))
Sequence of Nonstructural protein 1 (Q194T2 whole entry): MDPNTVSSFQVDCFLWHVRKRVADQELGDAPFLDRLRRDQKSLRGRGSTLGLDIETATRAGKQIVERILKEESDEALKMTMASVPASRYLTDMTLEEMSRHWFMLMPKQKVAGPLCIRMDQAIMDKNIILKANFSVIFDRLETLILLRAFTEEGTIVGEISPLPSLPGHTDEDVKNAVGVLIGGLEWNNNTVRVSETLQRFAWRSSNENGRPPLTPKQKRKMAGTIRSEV

[8] = inhibitors of intracellular T. cruzi replication, confirmation, NIH3T3 host cells, beta-gal luminescence (AID 2044); format: functional, cell-based;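 also: intracellular parasites grown in NIH/3T3 mouse fibroblasts as host cells; luminescent beta-galactosidase reporter signal from transgenic T. cruzi replicating inside host cells; inhibitors lower the luminescence signal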
[9] = cytotoxicity toward NIH3T3 fibroblasts, dose response, counter-screen, cell-based, ATP luminescence, mouse fibroblasts (AID 2010); format: functional;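 also: cells exposed to compound for about 90 hours before reading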
Large T antigen = Large T antigen (Simian virus 40, UniProt P03070); format: functional, Betapolyomavirus macacae;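 also: Confirmatory-stage PubChem screen for compounds that inhibit SV40 T antigen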
Sequence of Large T antigen (P03070 whole entry): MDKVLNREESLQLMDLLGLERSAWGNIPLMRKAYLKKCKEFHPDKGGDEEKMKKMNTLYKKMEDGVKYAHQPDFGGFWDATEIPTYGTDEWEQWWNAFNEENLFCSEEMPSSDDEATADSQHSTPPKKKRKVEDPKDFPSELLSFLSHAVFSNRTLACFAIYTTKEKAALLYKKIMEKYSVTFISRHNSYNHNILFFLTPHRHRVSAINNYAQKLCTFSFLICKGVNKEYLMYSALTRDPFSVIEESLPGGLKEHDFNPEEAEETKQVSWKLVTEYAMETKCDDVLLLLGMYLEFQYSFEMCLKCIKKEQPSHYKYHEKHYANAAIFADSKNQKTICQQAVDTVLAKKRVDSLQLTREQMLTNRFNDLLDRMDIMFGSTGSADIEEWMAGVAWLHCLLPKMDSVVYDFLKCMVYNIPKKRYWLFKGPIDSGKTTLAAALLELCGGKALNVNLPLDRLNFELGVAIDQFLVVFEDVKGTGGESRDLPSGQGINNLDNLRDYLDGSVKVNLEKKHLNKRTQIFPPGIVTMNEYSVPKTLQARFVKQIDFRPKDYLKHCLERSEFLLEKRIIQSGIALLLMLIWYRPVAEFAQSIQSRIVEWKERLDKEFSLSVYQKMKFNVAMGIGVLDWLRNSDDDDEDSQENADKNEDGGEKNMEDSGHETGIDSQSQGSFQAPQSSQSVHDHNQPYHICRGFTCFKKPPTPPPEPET

SMILES: CCOc1cc(C2C(C#N)=C(N)Oc3[nH]nc(-c4ccccc4)c32)ccc1O (stereo unspecified)
- IC50 (Leucine aminopeptidase): 77.1 µM (active)
- IC50 [1]: > 20 µM (inactive)
- AC50 [2]: 1.81 µM (active)
- EC50 (Protein RecA): 0.689 µM (active)

SMILES: Fc1ccc(C2CCCN2Cc2nc(Cc3ccccc3)no2)cc1 (stereo unspecified)
- IC50 [3]: 50 µM (inactive)

SMILES: O=C(NN1C(=O)c2ccccc2NC12CCCCC2)c1ccccc1
- IC50 (Aminopeptidase N): 6.87 µM (active)

SMILES: O=C(Nc1ccccc1Oc1cccnc1)C1CCCN(Cc2ccc(F)cc2)C1 (stereo unspecified)
- EC50 [4]: 3.35 µM (active)

SMILES: CSc1n/c(=N/C(C)=O)ss1
- IC50 [5]: 25.8 µM (active)

SMILES: COc1cc2cc(C(c3nnnn3C3CCCC3)N(C)C3CCCCC3)c(O)nc2cc1OC (stereo unspecified)
- IC50 [3]: > 64 µM (inactive)

SMILES: Cc1ccc(/C(=N/Nc2ncnc3ccccc23)C(=O)O)cc1
- EC50 (cells [6]): > 350 µM (not active)
- EC50 (cells [7]): > 350 µM (not active)
- IC50 (Nonstructural protein 1): 9.46 µM (active)

SMILES: CCOc1ccc(Nc2nc3cc(S(=O)(=O)N(CC)CC)ccc3o2)cc1
- IC50 [5]: > 100 µM (inactive)

SMILES: O=C(Cc1ccccc1[N+](=O)[O-])OCc1cccc([N+](=O)[O-])c1
- EC50 [4]: 0.376 µM (active)

SMILES: Cc1nnc2sc(SCC(=O)Nc3ccc(Cl)cc3)nn2c1=O
- IC50 (Nonstructural protein 1): 9.75 µM (active)

SMILES: Cc1cc(C)n(CC(=O)N/N=C/c2cc(Br)cc([N+](=O)[O-])c2O)n1
- IC50 (Aminopeptidase N): 19.2 µM (active)
- EC50 [8]: 0.678 µM (active)
- EC50 [9]: 15.9 µM (active)

SMILES: COc1ccc(CC(=O)Nc2nnc(C(C)C)s2)cc1
- IC50 [3]: 50 µM (inactive)

SMILES: Oc1ccc(-c2[nH]ncc2-c2cccc3cccnc23)c(O)c1
- IC50 (Large T antigen): 25.7 µM (active)
- IC50 [3]: > 64 µM (inactive)
